Consider two compounds from US6451332B1, “Pesticidal composition having high pesticidal ingredient vaporization rate method for controlling pests, and method for producing a pesticidal composition” (Sumitomo Chemical Company, Limited, priority 1997, dated 2002).

The nature of series [1]: Vaporization rate of the pesticidal ingredient (silica gel trap, acetone extraction, gas chromatography). The note with it: 10 g composition heated with 100 g calcium oxide and water; air sucked at 30 L/min for 5 min. Type of series: physicochemical. Here is the method: Pesticidal devices were prepared in the same method as test examples 5 and 8, and had water poured to the calcium oxide. After the reaction of calcium oxide with water started, the pesticidal device was replaced to a glass funnel with a lid. The vaporizing pesticidal ingredient was then trapped to silica gel in glass column connected to the funnel by sucking air at 30 L/min for 5 m in. Subsequently, the pesticidal ingredient present in the silica gel was extracted with acetone. The vaporization rate for the pesticidal ingredient was then measured by the quantitative analysis of gas chromatography.
A pesticidal device was prepared by placing:
1) 10 g of the pesticidal composition obtained in example 2 was placed interior to the separating wall of the container presented in FIG. 1 and
2) 100 g of calcium oxide with 1-20 mesh was placed exterior to the said separating wall but within the said container. The acquired pesticidal device was then tested for the vaporization rate by utilizing the procedure recited in test example 10.

The conditions of series [2]: Japanese Laid-open patent No. sho-53-109945A, table 2, sample #23; cited from earlier work.

Structures are written as SMILES.

For the compound `COC(=O)c1cc(Cl)ccc1NS(=O)(=O)C(F)(F)F` [2-methoxycarbonyl-4-chlorotrifluoromethanesulfonanilide], in series [1], the “vaporization rate for the pesticidal ingredient” value came to 78.5%. As to `CC(C)=CC1C(C(=O)OCN2C(=O)C3=C(CCCC3)C2=O)C1(C)C` (stereo not drawn) [tetramethrin], the “vaporization rate for the pesticidal ingredient” value in series [1] worked out at 88.1%. Moreover, the vaporization rate in series [2] was 63.0%.
